According to patent publication US20050233904A1, “Herbicide-safener combination” (Bayer CropScience GmbH, priority 2004, published 2005):

Key:
Assay type in all cases: in vivo
[1] = tested on: harmful plants such as Sinapis alba, Chrysanthemum segetum, Avena sativa, Stellaria media, Echinochloa crus-galli, Lolium multiflorum, Setaria viridis …; assay: Pre-emergence action against weeds (greenhouse pot test, optical scoring vs untreated controls); settings: herbicide-safener combination with the safeners dymron (b-14), fenclorim (b-11), cumyluron (b-4), isoxadifen-ethyl (II-9), mefenpyr-diethyl (II-1), cloquintocet-mexyl (III-1), S3-1, h-1, h-2, h-3, dietholate (b-7), disulfoton (b-5), 1,8-naphthalic anhydride (b-1), fluxofenim (b-10), dichlormid (IV-1), benoxacor (IV-2), flurazole (b-12), R-29148 (IV-4); application rate of 100 g or less of herbicid
From the text: (§1) Seeds or rhizome pieces of monocotyledonous and dicotyledonous weed plants were placed in sandy loam soil in cardboard pots and covered with soil. The active compounds (A) and (B), formulated in the form of wettable powders or emulsion concentrates, were then applied to the surface of the covering soil in various dosages as an aqueous suspension or emulsion using a water application rate of 600 to 800 I/ha (converted).
After the treatment, the pots were placed in a greenhouse and kept under good growth conditions for the weeds. Optical scoring of the damage to the plants or emerged plants was carried out after emergence of the test plants after a trial period of 3 to 4 weeks, in comparison to untreated controls. As shown by the results, the tested herbicide-safener combinations have good herbicidal pre-emergence activity against a broad spectrum of weed grasses and broad-leaved weeds.

[2] = tested on: harmful plants such as Sinapis alba, Echinochloa crus-galli, Lolium multiflorum, Chrysanthemum segetum, Setaria viridis, Abutilon theophrasti, Amaranthus …; assay: Post-emergence action against weeds (greenhouse pot test, visual scoring vs untreated controls); settings: herbicide-safener combination with the safeners dymron (b-14), fenclorim (b-11), cumyluron (b-4), isoxadifen-ethyl (II-9), mefenpyr-diethyl (II-1), cloquintocet-mexyl (III-1), S3-1, h-1, h-2, h-3, dietholate (b-7), disulfoton (b-5), 1,8-naphthalic anhydride (b-1), fluxofenim (b-10), dichlormid (IV-1), benoxacor (IV-2), flurazole (b-12), R-29148 (IV-4); treated at three-leaf stage; application rate
Procedure: (§2) Seeds or rhizome pieces of monocotyledonous and dicotyledonous weeds were placed into sandy loam soil in plastic pots, covered with soil and grown in a greenhouse under good growth conditions. Three weeks after sowing, the test plants were treated at the three-leaf stage. The compounds according to the invention, formulated as wettable powders or as emulsion concentrates, were sprayed onto the green parts of the plants at various dosages using a water application rate of 600 to 800 I/ha (converted). The test plants were stood in the greenhouse under optimum growth conditions for about three to four weeks, and the action of the preparations was then scored visually in comparison to untreated controls. Post-emergence, too, the herbicide-safener combinations according to the invention have good herbicidal activity against a broad spectrum of economically important weed grasses and broad-leaved weeds.

[3] = tested on: crop plants such as cotton, oil seed rape, sugar beet and Gramineae crops such as barley, wheat, rye, millet, corn or rice; settings: herbicide-safener combination with the safeners dymron (b-14), fenclorim (b-11), cumyluron (b-4), isoxadifen-ethyl (II-9), mefenpyr-diethyl (II-1), cloquintocet-mexyl (III-1), S3-1, h-1, h-2, h-3, dietholate (b-7), disulfoton (b-5), 1,8-naphthalic anhydride (b-1), fluxofenim (b-10), dichlormid (IV-1), benoxacor (IV-2), flurazole (b-12), R-29148 (IV-4); pre-emergence or post-emergence method; score
From the text: as §1, §2
In further greenhouse trials, seeds of a relatively large number of crop plants and weeds were placed into sandy loam soil and covered with soil. Some of the pots were immediately treated as described in Section 1, the others were placed in a greenhouse until the plants had developed two to three true leaves and were then sprayed with various dosages of the herbicide-safener combinations according to the invention, as described in Section 2.

| SMILES | herbicidal activity against harmful plants, pre-emergence method [1] | herbicidal activity against harmful plants, post-emergence method [2] | damage to crop plants [3] |
| --- | --- | --- | --- |
| CCOc1cc(OC)nc(NC(=O)NS(=O)(=O)c2ncccc2C2=NOCCO2)n1 [Compound I-1] | very good herbicidal activity | very good herbicidal activity | did not cause any damage |
| COc1cc(C)nc(NC(=O)[N-]S(=O)(=O)c2ncccc2C2=NOCCO2)n1.[Na+] [Compound I-3] | very good herbicidal activity | very good herbicidal activity | did not cause any damage |
| COc1cc(N(C)C)nc(NC(=O)NS(=O)(=O)c2ncccc2C2=NOCCO2)n1 [Compound I-8] | very good herbicidal activity | very good herbicidal activity | did not cause any damage |
| COc1cc(Cl)nc(NC(=O)NS(=O)(=O)c2ncccc2C2=NOCCO2)n1 [Compound I-9] | very good herbicidal activity | very good herbicidal activity | did not cause any damage |
| COc1cc(Cl)nc(NC(=O)[N-]S(=O)(=O)c2ncccc2C2=NOCCO2)n1.[Na+] [Compound I-10] | very good herbicidal activity | very good herbicidal activity | did not cause any damage |
| COc1cc(OC)nc(NC(=O)NS(=O)(=O)c2ncccc2C2=NOCCO2)n1 [Compound I-11] | very good herbicidal activity | very good herbicidal activity | did not cause any damage |
| COc1cc(OC)nc(NC(=O)[N-]S(=O)(=O)c2ncccc2C2=NOCCO2)n1.[Na+] [Compound I-12] | very good herbicidal activity | very good herbicidal activity | did not cause any damage |
| CCOc1cc(OCC)nc(NC(=O)[N-]S(=O)(=O)c2ncccc2C2=NOCCO2)n1.[Na+] [Compound I-14] | very good herbicidal activity | very good herbicidal activity | did not cause any damage |
| CCOc1cc(Cl)nc(NC(=O)NS(=O)(=O)c2ncccc2C2=NOCCO2)n1 [Compound I-21] | very good herbicidal activity | very good herbicidal activity | did not cause any damage |
| CCOc1cc(Cl)nc(NC(=O)[N-]S(=O)(=O)c2ncccc2C2=NOCCO2)n1.[Na+] [Compound I-22] | very good herbicidal activity | very good herbicidal activity | did not cause any damage |
| Cc1cc(C)nc(NC(=O)NS(=O)(=O)c2ncccc2C2=NOCCO2)n1 [Compound I-23] | very good herbicidal activity | very good herbicidal activity | did not cause any damage |
| Cc1cc(Cl)nc(NC(=O)NS(=O)(=O)c2ncccc2C2=NOCCO2)n1 [Compound I-29] | very good herbicidal activity | very good herbicidal activity | did not cause any damage |
| Cc1cc(Cl)nc(NC(=O)[N-]S(=O)(=O)c2ncccc2C2=NOCCO2)n1.[Na+] [Compound I-30] | very good herbicidal activity | very good herbicidal activity | did not cause any damage |
| COc1nc(NC(=O)NS(=O)(=O)c2ncccc2C2=NOCCO2)nc(OC)n1 [Compound I-51] | very good herbicidal activity | very good herbicidal activity | did not cause any damage |
| COc1nc(NC(=O)[N-]S(=O)(=O)c2ncccc2C2=NOCCO2)nc(OC)n1.[Na+] [Compound I-52] | very good herbicidal activity | very good herbicidal activity | did not cause any damage |
| COc1nc(NC(=O)[N-]S(=O)(=O)c2ncccc2C2=NOCCO2)nc(N(C)C)n1.[Na+] [Compound I-60] | very good herbicidal activity | very good herbicidal activity | did not cause any damage |
| CCOc1nc(Cl)nc(NC(=O)[N-]S(=O)(=O)c2ncccc2C2=NOCCO2)n1.[Na+] [Compound I-70] | very good herbicidal activity | very good herbicidal activity | did not cause any damage |
| CN(C)c1nc(NC(=O)NS(=O)(=O)c2ncccc2C2=NOCCO2)nc(OCC(F)(F)F)n1 [Compound I-142] | very good herbicidal activity | very good herbicidal activity | did not cause any damage |
| O=C(Nc1nc(Cl)cc(OCC(F)(F)F)n1)NS(=O)(=O)c1ncccc1C1=NOCCO1 [Compound I-143] | very good herbicidal activity | very good herbicidal activity | did not cause any damage |
| O=C([N-]S(=O)(=O)c1ncccc1C1=NOCCO1)Nc1nc(Cl)cc(OCC(F)(F)F)n1.[Na+] [Compound I-145] | very good herbicidal activity | very good herbicidal activity | did not cause any damage |
